Laboratory results published in US20150025120A1, “PYRAZOLE-ALCOHOL COMPOUNDS AND PHARMACEUTICAL USE THEREOF” (JAPAN TOBACCO INC., priority 2013, published 2015).

How the values were obtained:
[1] = target: T1, hERG current (hERG-transfected HEK293 cells) (Homo sapiens, UniProt Q12809); test: hERG whole cell patch clamp test; assay type: cell-based
T1 construct: host or cells: HEK293
Protocol: Using human ether-a-go-go related gene (hERG)-transfected HEK293 cells (Cytomyx Limited), an influence on hERG current was examined according to the whole cell patch clamp technique. The hERG-transfected HEK293 cells were passaged using a CO2 incubator (BNA-111, TABAI ESPEC CORP.) under the set conditions of 37° C., 5% CO2, saturated humidity. Culture containers used were Collagen Type I Coated 75 cm^2 flask (4123-010, AGC TECHNO GLASS CO., Ltd.) and Collagen Type I Coated 35 mm culture dish (4000-010, AGC TECHNO GLASS CO., Ltd.). The culture medium used was E-MEM (Eagle Minimum Essential Medium (Earle's Salts, Nikken biomedical laboratory) added with 10% FCS (Fetal calf serum, BioWest, L.L.C.) and 1% MEM Non-Essential Amino Acids Solution (NEAA, Invitrogen Corporation). Geneticin for the selection of hERG gene expressing cells was added thereto to a concentration of 400 μg/mL. As the cells for the measurement, 3×10^4 hERG-transfected HEK293 cells were plated on a 35 mm culture dish 4 to 7 days before measurement of the hERG current. The culture dish produced for the measurement contained the above-mentioned culture medium without geneticin (Invitrogen Corporation).
The highest evaluation concentration of each compound was determined from the highest concentration at which precipitation was not found in the standard extracellular fluid (NaCl: 140 mmol/L, KCl: 2.5 mmol/L, MgCl2: 2 mmol/L, CaCl2: 2 mmol/L, HEPES: 10 mmol/L, glucose: 10 mmol/L (adjusted to pH 7.4 with Tris-base)). As the application method, each solution to be applied was ejected from a Y-tube having a tip diameter of about 0.25 mm, which was adjacent (about 2 mm) to the cells, and applied to the cells. The ejection rate was about 0.4 mL/min.
The experiment was performed at room temperature under a phase contrast microscope. The 35 mm culture dish plated with the cells was set on a measurement apparatus, and the standard extracellular fluid was continuously applied to the cells from the Y-tube. A glass electrode for the measurement was filled with an intracellular fluid (Potassium Gluconate: 130 mmol/L, KCl: 20 mmol/L, MgCl2: 1 mmol/L, ATP-Mg: 5 mmol/L, EGTA: 3.5 mmol/L, HEPES: 10 mmol/L (adjusted to pH 7.2 with Tris-base)). A conventional whole cell patch clamp method was applied to the cells, and the maintenance electric potential was set to −80 mV. Under a fixed electric potential, the whole cell current was amplified by an amplifier for patch clamp (AXOPATCH-200B, Axon Instruments, Inc.), and the data was loaded into a computer (IMC-P642400, Intermedical Co., Ltd.) using a data acquisition analysis software (pCLAMP 9.2, Axon Instruments, Inc.).
The measurement of the hERG current was performed in the following two steps. In both cases, the hERG current was initiated by giving a command potential (maintenance electric potential −80 mV, prepulse+20 mV, 1.5 sec, test-pulse −50 mV, 1.5 sec).
Step (1): The above-mentioned command potential was given at 0.1 Hz for 2 min.
Step (2): The above-mentioned command potential was subjected to P/3 subtraction of pCLAMP 9.2 to remove leak current. This was repeated three times and an average thereof was taken as hERG current.
Subsequent to step (1), Step (2) was performed (about 3 min), and the maximum tail current obtained by applying a test-pulse to the hERG current obtained by the method of step (2) was taken as hERG current value. Hereafter, the operations of (1) and (2) were alternately repeated until completion of the experiment and the hERG current value was measured.
Stable hERG current value was recorded three times (about 10 min), and the standard extracellular fluid was instantaneously exchanged with each application fluid. The hERG current value was measured three times (about 10 min) in the same manner during perfusion of the application fluid, and the current value obtained by the 3rd measurement was taken as hERG current value after perfusion of the application fluid. […]

tissue PDH activity = test: Ex vivo PDH activation assay (liver and epididymal adipose tissue after oral administration); assay type: in vivo, Sprague-Dawley rats; details: 3 mg/kg, rat, mean ± standard deviation
Protocol: The action of test compound on tissue PDH activity was evaluated. NADH production was detected via p-iodonitrotetrazolium violet (INT)-coupled system to measure PDH activity.
Normal male Sprague-Dawley rats were randomly allocated to the vehicle group and the test compound groups. The vehicle (0.5% aqueous methylcellulose solution, 5 mL/kg) or the test compound was orally administered to the rats. At 5 or 20 hr after administration, the rats were anesthetized with an intraperitoneal injection of sodium pentobarbital (60 mg/kg), and liver slices and epididymal adipose tissues were collected.
(§1) To the liver slices were rapidly added 9 volumes of ice-cold homogenization buffer (0.25 mol/L sucrose, 5 mmol/L tris(hydroxymethyl)aminomethane hydrochloride (pH 7.5), 2 mmol/L EDTA), and the mixtures were homogenized using a Polytron homogenizer. The homogenates were centrifuged at 600×g, 4° C. for 10 min to obtain the supernatant. The supernatants (1 mL) were centrifuged at 16,000×g, 4° C. for 10 min to collect the precipitates. The precipitates were washed by resuspension in the homogenization buffer (1 mL) and centrifuged in the same manner. The precipitates were frozen with liquid nitrogen and stored at −80° C. as the liver mitochondrial fraction.
as §1, with “adipose tissues” for “liver slices”, “3” for “9”, “of an” for “of”, “buffer,” for “buffer (0.25 mol/L sucrose, 5 mmol/L tris(hydroxymethyl)aminomethane hydrochloride (pH 7.5), 2 mmol/L EDTA),”, “supernatants” for “supernatants (1 mL)”, “adipose tissue” for “liver”
The mitochondrial fractions were thawed and suspended with the sample buffer (0.25 mol/L sucrose, 20 mmol/L tris(hydroxymethyl)aminomethane hydrochloride (pH 7.5), 50 mmol/L potassium chloride, and 1 mL/L 4-(1,1,3,3-tetramethylbutyl)phenyl-polyethylene glycol (Triton X-100)). Active PDH activity (PDHa activity) and total PDH activity (PDHt activity) were measured to evaluate the PDH activity. For the measurement of the PDHt activity, equal amounts of the mitochondrial suspension and the activation buffer (0.25 mol/L sucrose, 20 mmol/L tris(hydroxymethyl)aminomethane hydrochloride (pH 7.5), 50 mmol/L potassium chloride, 1 mL/L Triton X-100, 4 mmol/L calcium chloride, 40 mmol/L magnesium chloride, 10 mmol/L sodium dichloroacetate) were mixed, and the mixtures were incubated at 37° C. for 10 min. Forty microliters of the mitochondrial suspensions diluted with a sample buffer were added to a 96-well microplate for activity measurement and blank measurement. Then 180 μL of the reaction mixture (0.056 mmol/L potassium phosphate buffer (pH 7.5), 5.6 mmol/L DL-carnitine, 2.8 mmol/L NAD, 0.22 mmol/L thiamin pyrophosphate, 0.11 mmol/L Coenzyme A, 1.1 mL/L Triton X-100, 1.1 mmol/L magnesium chloride, 1.1 g/L bovine serum albumin, 0.67 mmol/L INT, 7.2 μmol/L phenazine methosulfate, 28 mmol/L sodium oxamate) was added to each well, and then 20 μL of 50 mmol/L sodium pyruvate for activity measurement or water for blank measurement were added. The mixtures were incubated at room temperature under shading. The absorbances at 500-750 nm, which were attributable to reduction of INT, the final electron acceptor, were measured using a microplate reader over time and the changes in the absorbance were calculated. The PDH activity was calculated by subtraction of the change in absorbance of the blank well from that of the activity measurement well. The percentage of the PDHa activity to the PDHt activity was calculated and taken as an index of the PDH activation.

[2] = adipose tissue, 5 hr after oral administration
[3] = adipose tissue, 20 hr after oral administration
[4] = liver, 5 hr after oral administration
[5] = liver, 20 hr after oral administration

T1 sequence (Q12809 whole entry): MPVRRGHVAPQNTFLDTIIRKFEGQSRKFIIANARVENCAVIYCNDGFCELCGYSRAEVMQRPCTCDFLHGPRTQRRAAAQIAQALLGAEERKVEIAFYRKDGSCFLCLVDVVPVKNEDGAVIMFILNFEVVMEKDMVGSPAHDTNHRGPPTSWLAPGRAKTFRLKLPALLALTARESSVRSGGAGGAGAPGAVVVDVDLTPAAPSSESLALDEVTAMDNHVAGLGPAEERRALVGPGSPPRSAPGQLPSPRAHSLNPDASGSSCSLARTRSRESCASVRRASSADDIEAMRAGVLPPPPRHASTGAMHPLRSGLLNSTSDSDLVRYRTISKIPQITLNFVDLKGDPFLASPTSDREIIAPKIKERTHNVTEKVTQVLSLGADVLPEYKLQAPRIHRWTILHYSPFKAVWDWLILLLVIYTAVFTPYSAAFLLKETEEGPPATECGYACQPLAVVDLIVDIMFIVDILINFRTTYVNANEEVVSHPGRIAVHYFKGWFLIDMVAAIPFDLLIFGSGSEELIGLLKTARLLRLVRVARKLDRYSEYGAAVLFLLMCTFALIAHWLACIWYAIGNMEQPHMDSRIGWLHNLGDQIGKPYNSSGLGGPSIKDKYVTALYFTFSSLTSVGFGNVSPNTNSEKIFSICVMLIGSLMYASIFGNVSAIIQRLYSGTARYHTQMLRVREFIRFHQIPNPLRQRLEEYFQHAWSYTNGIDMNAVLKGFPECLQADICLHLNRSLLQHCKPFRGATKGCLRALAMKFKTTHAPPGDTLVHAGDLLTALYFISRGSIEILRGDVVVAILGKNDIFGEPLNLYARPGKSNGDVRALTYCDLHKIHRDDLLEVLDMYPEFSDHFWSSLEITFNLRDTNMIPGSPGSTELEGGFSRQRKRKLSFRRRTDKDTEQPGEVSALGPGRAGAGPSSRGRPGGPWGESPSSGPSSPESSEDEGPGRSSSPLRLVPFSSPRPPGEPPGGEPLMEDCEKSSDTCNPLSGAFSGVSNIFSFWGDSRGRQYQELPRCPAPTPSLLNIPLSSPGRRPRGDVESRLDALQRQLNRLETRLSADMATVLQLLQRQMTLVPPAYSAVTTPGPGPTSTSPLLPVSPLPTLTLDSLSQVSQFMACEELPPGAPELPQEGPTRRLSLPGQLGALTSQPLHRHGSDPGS

SMILES: CC(C)(O)COc1cc(-c2cnn(CCO)c2)c2c(c1)[C@@](O)(C(F)(F)F)c1ccccc1-2 [compound (C), (9R)-4-[1-(2-Hydroxyethyl)-1H-pyrazol-4-yl]-2-(2-hydroxy-2-methylpropoxy)-9-(trifluoromethyl)-9H-fluoren-9-ol]
- hERG inhibition rate (%) ([1]; concentration 3 μmol/L): 11.5%
- hERG inhibition rate (%) ([1]; concentration 30 μmol/L): 69.0%
- PDHa activity (% PDHt activity) (tissue PDH activity; [2]): 53 ± 4 % PDHt activity
- PDHa activity (% PDHt activity) (tissue PDH activity; [3]): 28 ± 7 % PDHt activity
- PDHa activity (% PDHt activity) (tissue PDH activity; [4]): 44 ± 5 % PDHt activity
- PDHa activity (% PDHt activity) (tissue PDH activity; [5]): 13 ± 3 % PDHt activity

SMILES: CC(C)(C(N)=O)n1cc(-c2cc(F)cc3c2-c2ccccc2[C@]3(O)C(F)(F)F)cn1 [compound (D), 2-{4-[(9R)-2-Fluoro-9-hydroxy-9-(trifluoromethyl)-9H-fluoren-4-yl]-1H-pyrazol-1-yl}-2-methylpropanamide]
- hERG inhibition rate (%) ([1]; concentration 3 μmol/L): 9.4%
- hERG inhibition rate (%) ([1]; concentration 30 μmol/L): 67.5%
- PDHa activity (% PDHt activity) (tissue PDH activity; [2]): 43 ± 7 % PDHt activity
- PDHa activity (% PDHt activity) (tissue PDH activity; [3]): 24 ± 3 % PDHt activity
- PDHa activity (% PDHt activity) (tissue PDH activity; [4]): 41 ± 15 % PDHt activity
- PDHa activity (% PDHt activity) (tissue PDH activity; [5]): 20 ± 1 % PDHt activity
